# Experimental data reported in US20220402869A1, “TRANSCRIPTIONAL ENHANCED ASSOCIATE DOMAIN (TEAD) TRANSCRIPTION FACTOR INHIBITORS AND USES THEREOF” (Dana-Farber Cancer Institute, Inc., priority 2018, published 2022).
# System: TEAD transcriptional activity
# Test: Inhibition of TEAD-driven transcription (8×GTIIC-luciferase reporter assay)
# Type: cell-based
# Conditions: 40 μM at 24 hour treatment
# Protocol: The compounds were tested for their ability to inhibit TEAD-driven transcription.
# 8×GTIIC-luciferase plasmid, containing 8 TEAD binding sites (ACATTCCA), was obtained from Addgene (Addgene #34615). MDA-MB-231 cells were transfected with 8×GTIIC-luciferase and stable clone was obtained using neomycin selection. The TEAD transcriptional activity was monitored by assessing the luciferase activity using luciferase assay system (Promega). Each data point represents mean±standard deviation.
row,Compound,inhibition at 40 µM [%]
1,"C=CC(=O)N1CCC[C@@H](Nc2cccc(C(F)(F)F)c2)C1 [Compound I-1, (R)-1-(3-((3-(trifluoromethyl)phenyl)amino)piperidin-1-yl)prop-2-en-1-one]",50
2,"O=C(CCl)N1CCC[C@@H](Nc2cccc(C(F)(F)F)c2)C1 [Compound I-2, (R)-2-chloro-1-(3-((3-(trifluoromethyl)phenyl)amino)piperidin-1-yl)ethan-1-one]",50
3,"O=C(CCl)N1CCC(Nc2cccc(C(F)(F)F)c2)C1 (stereo not shown) [Compound I-10, 2-chloro-1-(3-((3-(trifluoromethyl)phenyl)amino)pyrrolidin-1-yl)ethan-1-one]",90
4,"C=CC(=O)N1CCC(Nc2cccc(C(F)(F)F)c2)C1 (stereo not shown) [Compound I-11, 1-(3-((3-(trifluoromethyl)phenyl)amino)pyrrolidin-1-yl)prop-2-en-1-one]",90
5,"O=C(CCl)N1CCC[C@H](Nc2cccc(C(F)(F)F)c2)C1 [Compound I-14, (S)-2-chloro-1-(3-((3-(trifluoromethyl)phenyl)amino)piperidin-1-yl)ethan-1-one]",70
6,"C=CC(=O)N1CCC[C@H](Nc2cccc(C(F)(F)F)c2)C1 [Compound I-15, (S)-1-(3-((3-(trifluoromethyl)phenyl)amino)piperidin-1-yl)prop-2-en-1-one]",70
7,C#Cc1cc(N[C@@H]2CCCN(C(=O)CCl)C2)cc(C(F)(F)F)c1 [Compound I-18],50
8,"O=C(CCl)N1CCCC(Nc2cccc(C(F)(F)F)c2)C1 (stereo not shown) [Compound I-19, 2-chloro-1-(3-((3-(trifluoromethyl)phenyl)amino)piperidin-1-yl)ethan-1-one]",50
9,"O=C(CCl)N1CCC[C@@H](Oc2cccc(C(F)(F)F)c2)C1 [Compound I-20, (R)-2-chloro-1-(3-(3-(trifluoromethyl)phenoxy)piperidin-1-yl)ethan-1-one]",70
10,C=CC(=O)N1CCC[C@@H](Oc2cccc(C(F)(F)F)c2)C1 [Compound I-21],70
11,"CCC(=O)N1CCC(Nc2cccc(C(F)(F)F)c2)C1 (stereo not shown) [Compound I-27, 1-(3-((3-(trifluoromethyl)phenyl)amino)pyrrolidin-1-yl)propan-1-one]",70
12,"O=C(CCl)Nc1ccccc1Nc1cccc(C(F)(F)F)c1 [Compound I-31, 2-chloro-N-(2-((3-(trifluoromethyl)phenyl)amino)phenyl)acetamide]",90
13,"O=C(CCl)N1CC(c2cccc(C(F)(F)F)c2)c2ccccc21 (stereo not shown) [Compound I-35, 2-chloro-1-(3-(3-(trifluoromethyl)phenyl)indolin-1-yl)ethan-1-one]",70
14,"CN(C)C/C=C/C(=O)N1CC[C@H](Nc2cccc(C(F)(F)F)c2)C1 [Compound I-47, (S,E)-4-(dimethylamino)-1-(3-((3-(trifluoromethyl)phenyl)amino)pyrrolidin-1-yl)but-2-en-1-one]",50
15,"C=CC(=O)N1CC[C@H](N(C)c2cccc(C(F)(F)F)c2)C1 [Compound I-48, (S)-1-(3-(methyl(3-(trifluoromethyl)phenyl)amino)pyrrolidin-1-yl)prop-2-en-1-one]",50
16,"C=CC(=O)N1CC[C@H](Nc2cccc(N3CCN(C)CC3)c2)C1 [Compound I-49, (S)-1-(3-((3-(4-methylpiperazin-1-yl)phenyl)amino)pyrrolidin-1-yl)prop-2-en-1-one]",50
17,"C=CC(=O)N1CC[C@H](Nc2cc(C(F)(F)F)cc(C(F)(F)F)c2)C1 [Compound I-50, (S)-1-(3-((3,5-bis(trifluoromethyl)phenyl)amino)pyrrolidin-1-yl)prop-2-en-1-one]",90
18,"C=CC(=O)N1CC[C@H](Nc2cc(C(F)(F)F)ccc2Cl)C1 [Compound I-51, (S)-1-(3-((2-chloro-5-(trifluoromethyl)phenyl)amino)pyrrolidin-1-yl)prop-2-en-1-one]",90
19,"C=CC(=O)N1CC[C@H](Nc2cc(Cl)cc(C(F)(F)F)c2)C1 [Compound I-52, (S)-1-(3-((3-chloro-5-(trifluoromethyl)phenyl)amino)pyrrolidin-1-yl)prop-2-en-1-one]",70
20,"C=CC(=O)N1CC[C@H](Nc2cc(C(F)(F)F)ccc2OC)C1 [Compound I-56, (S)-1-(3-((2-methoxy-5-(trifluoromethyl)phenyl)amino)pyrrolidin-1-yl)prop-2-en-1-one]",50
21,"C=CC(=O)N1CC[C@H](Nc2cccc(C(F)(F)F)c2C)C1 [Compound I-57, (S)-1-(3-((2-methyl-3-(trifluoromethyl)phenyl)amino)pyrrolidin-1-yl)prop-2-en-1-one]",70
22,"C=CC(=O)N1CC[C@H](Oc2cccc(C(F)(F)F)c2)C1 [Compound I-58, (S)-1-(3-(3-(trifluoromethyl)phenoxy)pyrrolidin-1-yl)prop-2-en-1-one]",70
23,"C=CC(=O)N1CC[C@H](Nc2cncc(C(F)(F)F)c2)C1 [Compound I-61, (S)-1-(3-((5-(trifluoromethyl)pyridin-3-yl)amino)pyrrolidin-1-yl)prop-2-en-1-one]",50
24,"C=CC(=O)N1C[C@@H](O)[C@H](Nc2cccc(C(F)(F)F)c2)C1 [Compound I-62, 1-((3R,4R)-3-hydroxy-4-((3-(trifluoromethyl)phenyl)amino)pyrrolidin-1-yl)prop-2-en-1-one]",70
25,"C=CC(=O)N1CC[C@H](Nc2cccc(C(F)(F)F)c2N)C1 [Compound I-65, (S)-1-(3-((2-amino-3-(trifluoromethyl)phenyl)amino)pyrrolidin-1-yl)prop-2-en-1-one]",90
